Blank lines part the entries; values can stand above or below the compound they belong to.
How the values were obtained:
[1] = Comparison of L-menthol with other known transdermal permeation enhancers (AUC∞ of the thienopyridine compound); format: in vivo; details: AUC∞ after transdermal administration, component replaced with water, mice, FIG. 3
Protocol: Other reported transdermal permeation enhancers were tested to see how they affect the skin permeability of the thienopyridine compound.
Variants of the Example 1 formulation were created by removing one of the following and replacing it with water: propylene glycol, glycerol, or urea. Each variant was administered transdermally to mice (n=3) as in Experimental Example 2. Blood samples were analyzed to obtain plasma concentration-time profiles and the resulting average AUC∞±SD. These were compared by bar chart (FIG. 3) with the Example 1 formulation (with L-menthol) and Comparative Example 1 (without L-menthol). The asterisk (*) indicates p<0.01 (t-test).

[2] = ultraviolet light; Korean Patent No. 10-1478302; cited from earlier work
[3] = Ju Yong Song 2016 thesis; cited from earlier work
[4] = Sun X et al. 2012; cited from earlier work
[5] = Ju Yong Song 2016 thesis; cited from earlier work; remark: listed apart in the source
[6] = Fowler A J et al. 2019; US 2019-0262323; cited from earlier work
[7] = tested on: Src/DDR tyrosine kinase family; details: see U.S. Pat. No. 9,062,066; cited from earlier work
[8] = Transdermal potential: plasma pharmacokinetics via topical, intravenous and intradermal routes in rats; format: in vivo, SD rats; details: 5 mpk; for AUC(0-inf) / AUC(0-t) at 24 h / Cmax / Tmax / half-life: rat, 5 mg/kg, male SD rats, phosphate salt form, plasma
Protocol: An experiment was conducted to evaluate the transdermal potential of the thienopyridine compound (API) using 7-week-old male SD rats. Specifically, the same 5 mpk dose of the thienopyridine compound was administered via three routes-transdermal (topical), intravenous (tail vein), and intradermal injections-simultaneously, following the compositions and methods shown in Table 1 (n=3 per group). The plasma concentration of the thienopyridine compound and pharmacokinetic parameters were then measured for each route.
In more detail, in each formulation the thienopyridine compound was used in phosphate salt form (compound:phosphoric acid=1:2.5 equivalents) at a concentration of 0.3 wt % in the carrier solution. For the transdermal formulation, the thienopyridine compound was first dissolved in a carrier solution lacking 3% […]™ EG, and then 3% […]™ EG (Seppic, France) was added with stirring for 3 minutes to impart viscosity. Blood samples were collected via the carotid artery at 0 (negative control sample), 0.03, 0.16, 0.25, 0.5, 1, 2, 4, 6, and 24 hours post-administration, placed into heparinized tubes, and centrifuged (3,000 rpm, 10 minutes). Plasma (13.5 μl) was stored at −20 °C until analyzed by LC-MS/MS within a week. Plasma concentrations of the thienopyridine compound were determined by LC-MS/MS. Each 13.5 μl plasma sample was mixed with 60 μl of acetonitrile containing 1 μg/mL of an internal standard, vortexed, and centrifuged at 6,000 rpm for 15 minutes; 50 μl of the supernatant was then mixed with 50 μl of distilled water for LC-MS/MS analysis. The LC-MS/MS system was an Agilent 1200 Series HPLC (Agilent, Santa Clara, CA) coupled with an AP13200® triple-quadrupole mass spectrometer (Applied Biosystems-SCIEX, Concord, Canada). The mobile phase was 0.1% formic acid in water (A) and acetonitrile (B). Chromatographic separation was achieved on a reverse-phase Atlantis™ T3 column (100×2.1 mm, 3 μm; Waters, Milford, MA) at a flow rate of 0.25 ml/min under a gradient. The LOQ was 9.7 ng/ml, and the correlation coefficient (R) for calibration was 0.997.
Pharmacokinetic parameters were determined by noncompartmental analysis using WinNonlin® (Pharsight, Mountain View, CA). The maximum plasma concentration (Cmax) was taken directly from the plasma concentration-time profile, and time to reach Cmax (Tmax) was recorded. The area under the concentration-time curve from time zero to the last time point (AUC0-24) was calculated by the trapezoidal rule […]. AUC∞ was calculated by summing AUC0-24 and AUC24-∞, the latter obtained by dividing the 24-hour plasma concentration by the terminal elimination rate.

[9] = Solution stability of the hydrochloride salt with solubilizer or thickener (days without precipitation); format: physicochemical; details: 0.3% hydrochloride salt, aqueous phase, room temperature
Protocol: This experiment examined whether a solubilizer or thickener could maintain a stable solution (without solid precipitation due to self-aggregation) of the hydrochloride salt of the thienopyridine compound of Chemical Formula 1 in an aqueous phase at room temperature. Specifically, 0.3% of the hydrochloride salt was dissolved in a water-phase solution composed of water, PEG400, glycerol, propylene glycol, hexanediol, and polysorbate 60 (as per Table 3). It was heated at 80 °C with stirring for 10 minutes for complete dissolution, then cooled to room temperature. 1% (w/w) of urea or polyvinylpyrrolidone (PVP K-30) was tested as a solubilizer by being added to the solution.
Additionally, 2% (w/w) of xanthan gum, carboxymethyl cellulose, or PEG-240/HDI copolymer bis-decyltetradeceth-20 ether was tested as a thickener. Various combinations were also tested. The day on which precipitation first appeared was noted by visual or microscopic observation. The maximum days with no precipitation was recorded. […] Confirmatory mass spectrometry and ^1H-NMR indicated the precipitate was the compound of Chemical Formula 1.

[10] = topical or ocular, topical application

SMILES: NC(N)=O [urea]
effect on transdermal permeability of the thienopyridine compound [1]: virtually no effect

SMILES: OCC(O)CO [glycerol]
effect on transdermal permeability of the thienopyridine compound [1]: virtually no effect

SMILES: CC(O)CO (stereo not drawn) [propylene glycol]
effect on transdermal permeability of the thienopyridine compound [1]: virtually no effect

SMILES: CC1CCC(C(C)C)C(O)C1 (stereo not drawn) [menthol]
effect on transdermal permeability of the thienopyridine compound [1]: uniquely strong enhancing effect

More lines, main results first:

AUC(0-inf) ([8]; intradermal injection): 446 ± 160 ng·h/mL | AUC(0-t) at 24 h ([8]; intradermal injection): 315 ± 197 ng·h/mL | Cmax ([8]; intradermal injection): 40.3 ± 15.7 ng/mL | Tmax ([8]; intradermal injection): 0.65 ± 0.335 h | half-life ([8]; intradermal injection): 8.32 ± 3.15 h | AUC(0-inf) ([8]; intravenous (iv)): 619 ± 219 ng·h/mL | AUC(0-t) at 24 h ([8]; intravenous (iv)): 514 ± 222 ng·h/mL | half-life ([8]; intravenous (iv)): 2.74 ± 1.81 h | AUC(0-inf) [8, 10]: 49.4 ± 37.7 ng·h/mL | AUC(0-t) at 24 h [8, 10]: 41.7 ± 8.84 ng·h/mL | Cmax [8, 10]: 10.4 ± 13.5 ng/mL | Tmax [8, 10]: 1.38 ± 1.75 h | half-life [8, 10]: 5.46 ± 2.29 h | transdermal absorption relative to intravenous or intradermal administration ([8]; topical vs intravenous or intradermal, rats): about one-tenth
SMILES: Oc1cccc(Nc2ccnc3cc(-c4cccc(CN5CCOCC5)c4)sc23)c1 [thienopyridine compound, 3-[[2-[3-(4-morpholinylmethyl)phenyl]thieno[3,2-b]pyridin-7-yl]amino]phenol]
anti-aging activity, wrinkle formation [2]: suppresses wrinkle formation | suppression of SLIGRL-NH2-induced pruritus [3]: effectively suppresses | anti-inflammatory and anti-scarring activities, repair of damaged skin tissue [4]: exhibits anti-inflammatory and anti-scarring activities and promotes the repair of damaged skin tissue | suppression of histamine-induced pruritus [5]: suppresses histamine-induced pruritus | progression of degenerative brain diseases [6]: suppress the progression of degenerative brain diseases | inhibition of kinase activity [7]: strongly inhibits

maximum days with no precipitation ([9]; thickener 2% PEG-240/HDI copolymer bis-decyltetradeceth-20 ether, solubilizer 1% polyvinylpyrrolidone (k30)): >7 days | maximum days with no precipitation ([9]; thickener 2% PEG-240/HDI copolymer bis-decyltetradeceth-20 ether, solubilizer 1% urea): 6 days | maximum days with no precipitation ([9]; thickener 2% PEG-240/HDI copolymer bis-decyltetradeceth-20 ether, solubilizer none): 6 days | maximum days with no precipitation ([9]; thickener 2% carboxymethyl cellulose, solubilizer 1% polyvinylpyrrolidone (k30)): 1 days | maximum days with no precipitation ([9]; thickener 2% carboxymethyl cellulose, solubilizer 1% urea): 1 days | maximum days with no precipitation ([9]; thickener 2% carboxymethyl cellulose, solubilizer none): 1 days | maximum days with no precipitation ([9]; thickener 2% xanthan gum, solubilizer 1% polyvinylpyrrolidone (k30)): 1 days | maximum days with no precipitation ([9]; thickener 2% xanthan gum, solubilizer 1% urea): 1 days | maximum days with no precipitation ([9]; thickener 2% xanthan gum, solubilizer none): 1 days | maximum days with no precipitation ([9]; thickener none, solubilizer 1% polyvinylpyrrolidone (k30)): 5 days | maximum days with no precipitation ([9]; thickener none, solubilizer 1% urea): 1 days | maximum days with no precipitation ([9]; thickener none, solubilizer none): 1 days
SMILES: Oc1cccc(Nc2ccnc3cc(-c4cccc(CN5CCOCC5)c4)sc23)c1

From patent publication US20260373155A1, “TRANSDERMALLY- OR TOPICALLY-ADMINISTERED COMPOSITION COMPRISING THIENOPYRIDINE COMPOUND” (GY LIFE SCIENCES CO., LTD., priority 2022, published 2026)
